ChEMBL document CHEMBL1144160, “Discovery and optimization of (R)-prolinol-derived agonists of the Growth Hormone Secretagogue receptor (GHSR)” (Bioorg Med Chem Lett, 2008)

Legend:
[1] = molecular target: T1, Growth hormone secretagogue receptor type 1 (Homo sapiens, UniProt Q92847); assay: Agonist activity at GHSR; type: functional
[2] = molecular target: T1, Growth hormone secretagogue receptor type 1; assay: Agonist activity at GHSR relative to full agonist; type: functional
[3] = molecular target: T1, Growth hormone secretagogue receptor type 1; assay: Binding affinity to GHSR

T1 sequence (Q92847 whole entry): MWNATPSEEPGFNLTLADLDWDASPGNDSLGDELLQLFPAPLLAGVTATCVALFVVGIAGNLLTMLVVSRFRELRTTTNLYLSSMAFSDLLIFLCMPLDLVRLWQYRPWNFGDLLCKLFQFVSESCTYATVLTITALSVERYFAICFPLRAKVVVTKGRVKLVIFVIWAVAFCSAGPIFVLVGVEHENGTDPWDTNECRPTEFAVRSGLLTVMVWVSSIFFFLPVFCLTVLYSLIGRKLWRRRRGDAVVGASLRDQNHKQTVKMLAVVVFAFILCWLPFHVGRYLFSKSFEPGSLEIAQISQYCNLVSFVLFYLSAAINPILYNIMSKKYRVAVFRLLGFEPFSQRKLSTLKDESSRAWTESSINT

Row | SMILES | EC50 [1] | Activity [2] | Ki [3]
1 | CC(Oc1ccccc1)C(=O)N(C[C@H]1CCCN1)c1ccc(Cl)cc1 (stereo partly specified) | 600 nM | 80% | –
2 | CCC(Oc1ccccc1)C(=O)N(C[C@H]1CCCN1)c1cccc(OC)c1 (stereo partly specified) | > 10000 nM | – | –
3 | O=C(COc1ccccc1)N(C[C@H]1CCCN1)c1ccccc1 | > 10000 nM | – | –
4 | CCC(Oc1ccccc1)C(=O)N(C[C@H]1CCCN1)c1ccc(NC(C)=O)cc1 (stereo partly specified) | 4000 nM | – | –
5 | CC(=O)Nc1cccc(N(C[C@H]2CCCN2)C(=O)C(C)Oc2ccccc2)c1 (stereo partly specified) | 1000 nM | 80% | –
6 | CCC(Oc1ccccc1)C(=O)N(Cc1ccccc1)C[C@H]1CCCN1 (stereo partly specified) | 900 nM | – | –
7 | CCC(Oc1ccccc1)C(=O)N(C[C@H]1CCCN1)c1cccc(-c2ccccc2)c1OC (stereo partly specified) | 2000 nM | – | –
8 | COc1cccc(N(C[C@H]2CCCN2)C(=O)COc2ccccc2)c1 | > 10000 nM | – | –
9 | CCC(Oc1ccccc1)C(=O)N(C[C@H]1CCCN1)c1ccc(CC#N)cc1 (stereo partly specified) | 14000 nM | – | –
10 | CC(=O)Nc1ccc(N(C[C@H]2CCCN2)C(=O)[C@@H](C)Oc2cccc(Cl)c2)cc1 | 1200 nM | 100% | ≥ 10000 nM
11 | CC(=O)Nc1cccc(N(C[C@H]2CCCN2)C(=O)C(C)Oc2ccccc2Cl)c1 (stereo partly specified) | 200 nM | 70% | –
12 | O=C(COc1ccccc1)N(Cc1ccccc1)C[C@H]1CCCN1 | > 10000 nM | – | –
13 | CC(Oc1ccccc1)C(=O)N(Cc1ccc(Cl)cc1)C[C@H]1CCCN1 (stereo partly specified) | 220 nM | 80% | –
14 | CC(Oc1ccccc1Cl)C(=O)N(C[C@H]1CCCN1)c1cccc(Cl)c1 (stereo partly specified) | 250 nM | 60% | –
15 | CC(Oc1ccccc1Cl)C(=O)N(C[C@H]1CCCN1)c1ccccc1 (stereo partly specified) | ≥ 10000 nM | – | –
16 | COc1c(-c2ccccc2)cccc1N(C[C@H]1CCCN1)C(=O)COc1ccccc1 | 5000 nM | – | –
17 | CC(Oc1ccccc1)C(=O)N(Cc1ccccc1Cl)C[C@H]1CCCN1 (stereo partly specified) | 150 nM | 100% | –

Row | SMILES | EC50 [1] | Activity [2] | Ki [3]
18 | CC(=O)Nc1ccc(N(C[C@H]2CCCN2)C(=O)COc2ccccc2)cc1 | 2000 nM | – | –
19 | CC(Oc1ccccc1)C(=O)N(C[C@H]1CCCN1)c1ccccc1Cl (stereo partly specified) | 1260 nM | 80% | –
20 | CC(Oc1cccc(Cl)c1)C(=O)N(C[C@H]1CCCN1)c1ccc(Cl)cc1 (stereo partly specified) | 120 nM | 90% | –
21 | CC(Oc1ccccc1)C(=O)N(C[C@H]1CCCN1)c1ccc(CC#N)cc1 (stereo partly specified) | 9000 nM | – | –
22 | COc1cccc(N(C[C@H]2CCCN2)C(=O)C(C)Oc2ccccc2)c1 (stereo partly specified) | 4000 nM | – | –
23 | CC(Oc1cccc(Cl)c1)C(=O)N(C[C@H]1CCCN1)c1ccccc1 (stereo partly specified) | 120 nM | 60% | –
24 | CC(Oc1ccccc1Cl)C(=O)N(Cc1ccccc1Cl)C[C@H]1CCCN1 (stereo partly specified) | 260 nM | 60% | –
25 | CC(Oc1cccc(Cl)c1)C(=O)N(C[C@H]1CCCN1)c1ccccc1Cl (stereo partly specified) | 780 nM | 70% | –
26 | CC(=O)Nc1cccc(N(C[C@H]2CCCN2)C(=O)C(C)Oc2cccc(Cl)c2)c1 (stereo partly specified) | 140 nM | 60% | –
27 | CCC(Oc1ccccc1)C(=O)N(C[C@H]1CCCN1)c1cccc(SC)c1 (stereo partly specified) | > 10000 nM | – | –
28 | CSc1cccc(N(C[C@H]2CCCN2)C(=O)C(C)Oc2ccccc2)c1 (stereo partly specified) | 2000 nM | – | –
29 | CC(Oc1ccccc1)C(=O)N(C[C@H]1CCCN1)c1ccccc1 (stereo partly specified) | 440 nM | – | –
30 | CC(=O)Nc1ccc(N(C[C@H]2CCCN2)C(=O)C(C)Oc2ccccc2)cc1 (stereo partly specified) | 330 nM | – | –
31 | Cc1ccccc1CN(C[C@H]1CCCN1)C(=O)[C@@H](C)Oc1cccc(Cl)c1 | 180 nM | 90% | 2200 nM
32 | C[C@@H](Oc1cccc(Cl)c1)C(=O)N(Cc1ccccc1)C[C@H]1CCCN1 | 1500 nM | 100% | ≥ 10000 nM
33 | CC(Oc1ccccc1Cl)C(=O)N(C[C@H]1CCCN1)c1ccccc1Cl (stereo partly specified) | ≥ 10000 nM | – | –
34 | CC(Oc1ccccc1Cl)C(=O)N(C[C@H]1CCCN1)c1ccc(Cl)cc1 (stereo partly specified) | ≥ 10000 nM | – | –

The remaining lines, values ahead:

Row | EC50 [1] | Activity [2] | Ki [3] | SMILES
35 | 40 nM | 110% | – | Cc1ccccc1CN(C[C@H]1CCCN1)C(=O)C(C)Oc1ccccc1 (stereo partly specified)
36 | 40 nM | 80% | – | CC(Oc1cccc(Cl)c1)C(=O)N(Cc1ccccc1Cl)C[C@H]1CCCN1 (stereo partly specified)
37 | 40 nM | 110% | – | CC(Oc1cccc(Cl)c1)C(=O)N(C[C@H]1CCCN1)c1cccc(Cl)c1 (stereo partly specified)
38 | 30 nM | 90% | – | CC(Oc1cccc(Cl)c1)C(=O)N(Cc1ccc(Cl)cc1)C[C@H]1CCCN1 (stereo partly specified)
39 | 50 nM | 90% | – | CC(=O)Nc1ccc(N(C[C@H]2CCCN2)C(=O)C(C)Oc2ccccc2Cl)cc1 (stereo partly specified)
40 | 20 nM | 100% | 250 nM | CC(=O)Nc1ccc(N(C[C@H]2CCCN2)C(=O)[C@H](C)Oc2cccc(Cl)c2)cc1
41 | 30 nM | 90% | 260 nM | CC(=O)Nc1ccc(N(C[C@H]2CCCN2)C(=O)C(C)Oc2cccc(Cl)c2)cc1 (stereo partly specified)
42 | 20 nM | 70% | – | CC(Oc1cccc(Cl)c1)C(=O)N(Cc1cccc(Cl)c1)C[C@H]1CCCN1 (stereo partly specified)
43 | 90 nM | 70% | – | Cc1cccc(CN(C[C@H]2CCCN2)C(=O)C(C)Oc2ccccc2Cl)c1 (stereo partly specified)
44 | 90 nM | – | – | CC(Oc1ccccc1)C(=O)N(Cc1ccccc1)C[C@H]1CCCN1 (stereo partly specified)
45 | 20 nM | 60% | – | CC(Oc1ccccc1Cl)C(=O)N(Cc1ccccc1)C[C@H]1CCCN1 (stereo partly specified)
46 | 140 nM | 90% | – | Cc1ccccc1CN(C[C@H]1CCCN1)C(=O)C(C)Oc1ccccc1Cl (stereo partly specified)
47 | 80 nM | 90% | – | Cc1cccc(CN(C[C@H]2CCCN2)C(=O)C(C)Oc2ccccc2)c1 (stereo partly specified)
48 | 10 nM | 90% | – | CC(Oc1ccccc1Cl)C(=O)N(Cc1cccc(Cl)c1)C[C@H]1CCCN1 (stereo partly specified)
49 | 7 nM | 80% | 300 nM | CC(Oc1cccc(Cl)c1)C(=O)N(Cc1ccccc1)C[C@H]1CCCN1 (stereo partly specified)
50 | 2 nM | 90% | 30 nM | Cc1ccccc1CN(C[C@H]1CCCN1)C(=O)[C@H](C)Oc1cccc(Cl)c1
51 | 3 nM | 100% | 100 nM | Cc1ccccc1CN(C[C@H]1CCCN1)C(=O)C(C)Oc1cccc(Cl)c1 (stereo partly specified)
52 | 90 nM | 110% | – | CC(Oc1ccccc1)C(=O)N(C[C@H]1CCCN1)c1cccc(Cl)c1 (stereo partly specified)
53 | 60 nM | 80% | – | CC(Oc1ccccc1Cl)C(=O)N(Cc1ccc(Cl)cc1)C[C@H]1CCCN1 (stereo partly specified)
54 | 120 nM | 20% | – | Cc1cccc(CN(C[C@H]2CCCN2)C(=O)C(C)Oc2cccc(Cl)c2)c1 (stereo partly specified)
55 | 50 nM | 80% | – | CC(Oc1ccccc1)C(=O)N(Cc1cccc(Cl)c1)C[C@H]1CCCN1 (stereo partly specified)
56 | 4 nM | 90% | 30 nM | C[C@H](Oc1cccc(Cl)c1)C(=O)N(Cc1ccccc1)C[C@H]1CCCN1
